For one data set, the target named is T1, SOAT (Homo sapiens, UniProt Q3KNW5).
T1 construct: stably transfected with the full open reading frames of human NTCP, ASBT, SOAT, OATP1B1, OATP1B3, OATP2B1, and murine Asbt (mAsbt); expressed in transfected cells; host or cells: HEK293 (Flp-In), stably transfected, tetracycline-induced
T1 sequence (Q3KNW5 1-377): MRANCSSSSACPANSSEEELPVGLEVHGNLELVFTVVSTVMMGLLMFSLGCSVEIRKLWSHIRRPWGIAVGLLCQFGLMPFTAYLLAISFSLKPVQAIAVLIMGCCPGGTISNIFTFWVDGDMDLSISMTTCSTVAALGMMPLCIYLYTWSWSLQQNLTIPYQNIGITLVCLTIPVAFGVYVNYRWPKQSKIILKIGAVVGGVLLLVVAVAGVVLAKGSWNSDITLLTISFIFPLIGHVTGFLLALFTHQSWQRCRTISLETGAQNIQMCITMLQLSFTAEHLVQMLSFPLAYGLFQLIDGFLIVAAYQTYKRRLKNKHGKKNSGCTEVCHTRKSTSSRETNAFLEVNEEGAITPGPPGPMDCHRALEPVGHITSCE
As to the kind of experiment: [3H]DHEAS transport inhibition assay in SOAT-HEK293 cells. Conditions: 1 μM [3H]DHEAS; for IC50: 10 min, SOAT-HEK293, two independent experiments. In kind it is cell-based. An excerpt: (§1) Human embryonic kidney HEK293 cells, stably transfected with the full open reading frames of human NTCP, ASBT, SOAT, OATP1B1, OATP1B3, OATP2B1, and murine Asbt (mAsbt) were used as reported ([18], [20], [21], [22], [23]). The NTCP, ASBT, and mAsbt constructs were C-terminally tagged with the FLAG epitope, and the SOAT construct was C-terminally tagged with green fluorescent protein. Non-transfected Flp-In HEK293 cells (Thermo Fisher Scientific) served as the control. All cell lines were maintained at 37°C, 5% CO2 and 95% humidity in DMEM/F-12 medium (Thermo Fisher Scientific) supplemented with 10% fetal calf serum (Sigma-Aldrich), 4 mM L-glutamine (PAA) and penicillin/streptomycin (PAA). Expression of the respective carrier protein was induced by tetracycline treatment at 1 μg/ml (Carl Roth GmbH + Co. KG).
(§2) Cells were seeded onto poly-L-lysine-coated 96-well plates, induced with 1 μg/ml tetracycline, and grown to confluence over 72 h at 37°C. Then, cells were washed with tempered (37°C) phosphate-buffered saline (PBS, containing 137.0 mM NaCl, 2.7 mM KCl, 1.5 mM KH2PO4, and 7.3 mM Na2HPO4, at pH 7.4) and preincubated with 80 μl sodium transport buffer (STB, containing 142.9 mM NaCl, 4.7 mM KCl, 1.2 mM MgSO4, 1.2 mM KH2PO4, 1.8 mM CaCl2, and 20.0 mM HEPES, at pH 7.4) for 5 min at 37°C. For inhibition studies, the medium was replaced by 80 μl STB containing the respective inhibitor or solvent alone and cells were further incubated for 5 min at 37°C. Transport experiments were started by adding 20 μl of a 5-fold concentrated substrate solution (solved in STB). For transport experiments under sodium-free conditions the same buffer composition was used as for STB, but sodium chloride was substituted with equimolar concentrations of choline chloride as previously reported ([20], [24]). Transport experiments were stopped by washing twice with ice-cold PBS and the plates were kept cool on ice until adding the lysis buffer [1% sodium dodecyl sulfate (SDS) and 1 N NaOH]. Then, the cell-associated radioactivity of the respective tritium-labeled substrate or ligand was quantified by liquid scintillation counting using MicroScint-20 scintillation cocktail (Revvity) in a Packard Microplate Scintillation Counter TopCount NXT (Packard Instrument Company). For IC50 transport inhibition measurements, the mean uptake values measured in non-carrier-expressing HEK293 control cells were defined as 0% uptake control and were subtracted from all other values. Values from cells without inhibitor and solvent alone were set to 100%. Finally, all net transport data were expressed as uptake or binding as % of control. All transport or inhibition graphs were generated with GraphPad Prism 6 (GraphPad). Determination of half maximal inhibitory concentrations (IC50) was done by nonlinear regression analysis using the equation log (inhibitor) versus response—variable slope settings. All data points of the IC50 curves represent means ± SD of quadruplicate determinations. For Km measurements, BS uptake in the absence of sodium was regarded as carrier-independent unspecific uptake and was subtracted from the transport rates in the presence of sodium to obtain carrier-specific uptake rates (indicated as dashed lines). From the specific uptake rates, Michaelis Menten Km values were calculated by non-linear regression analysis.

The target of data set [1] is T2, OATP1B3 (Homo sapiens, UniProt Q9NPD5).
T2 construct: stably transfected with the full open reading frames of human NTCP, ASBT, SOAT, OATP1B1, OATP1B3, OATP2B1, and murine Asbt (mAsbt); expressed in transfected cells; host or cells: HEK293, stably transfected (OATP1B3-HEK), tetracycline-induced
T2 sequence (Q9NPD5 1-702): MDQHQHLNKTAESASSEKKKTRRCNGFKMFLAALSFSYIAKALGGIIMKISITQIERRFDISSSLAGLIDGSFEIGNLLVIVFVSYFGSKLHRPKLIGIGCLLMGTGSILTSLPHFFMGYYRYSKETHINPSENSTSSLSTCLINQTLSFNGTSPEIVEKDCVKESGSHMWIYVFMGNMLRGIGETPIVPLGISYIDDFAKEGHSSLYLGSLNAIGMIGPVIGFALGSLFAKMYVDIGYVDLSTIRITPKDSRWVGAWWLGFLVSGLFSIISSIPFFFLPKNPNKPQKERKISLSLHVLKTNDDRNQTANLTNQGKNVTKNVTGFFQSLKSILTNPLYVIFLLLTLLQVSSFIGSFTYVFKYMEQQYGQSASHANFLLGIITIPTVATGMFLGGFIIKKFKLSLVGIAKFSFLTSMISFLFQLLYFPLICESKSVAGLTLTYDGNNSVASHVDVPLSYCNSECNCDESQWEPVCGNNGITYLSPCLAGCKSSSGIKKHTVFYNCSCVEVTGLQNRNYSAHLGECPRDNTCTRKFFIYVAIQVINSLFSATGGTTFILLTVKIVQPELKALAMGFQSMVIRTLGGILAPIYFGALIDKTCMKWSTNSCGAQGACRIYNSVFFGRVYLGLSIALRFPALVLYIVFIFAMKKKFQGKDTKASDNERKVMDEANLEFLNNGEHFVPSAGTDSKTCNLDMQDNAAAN
As to the kind of experiment: [3H]BSP transport inhibition assay in OATP1B3-HEK293 cells. In kind it is cell-based. To be noted: 1 μM [3H]BSP, 10 min; two independent experiments.
From the text: as §1, §2

Another data set concerns ASBT. Conditions: cited from earlier work; for IC50: read-out: IC50 ASBT inhibition.
Data set [2] has as its system OATP1B3. To be noted: cited from earlier work; for IC50: read-out: IC50 OATP1B3 inhibition.
The conditions of data set [3]: cited from earlier work.

The values below come from publication PMC12596218 (Journal of Lipid Research, 2025).

Molecules are shown by their SMILES. Where “and” joins values, the source holds several entries; their conditions need not be identical. Equal values may be shown once. Read-outs that look alike come from different tables or passages of the source.

In general, IC50 refers to the midpoint of a concentration-inhibition curve. Turning to `CCCCC1(CCCC)CS(=O)(=O)c2ccc(N(C)C)cc2[C@@H](c2ccc(OCCCC[N+]34CCN(CC3)CC4)cc2)[C@H]1O` [SC-435], the IC50 is 8.6 µM and 13.5 µM at SOAT; 2 to 8 µM and 7.8 µM and 5.1 µM against OATP1B3 [1].

Consider `CCCCC1(CCCC)CN(c2ccccc2)c2cc(SC)c(OCC(=O)N[C@@H](C(=O)NCC(=O)O)c3ccccc3)cc2S(=O)(=O)C1` [elobixibat], for which the IC50 is 3.2 µM and 3.3 µM on SOAT; 4.8 µM and 4.2 µM against OATP1B3 [1]; 0.00053 µM with ASBT (ref PMDA Goofice Report on the Deliberation Results); over 0.6 µM in the data set with OATP1B3 [2] (in vitro studies, ref PMDA Goofice Report on the Deliberation Results). Also, the “IC50 ratio for ASBT versus NTCP inhibition” value in the data set on ASBT (reported by the PMDA, ref PMDA) is reported as 0.0022. For the same compound, the “Cmax, clinical drug concentration” value in data set [3] (15 mg cohort study, ref PMDA Goofice report) is “Elobixibat clinical drug concentration in the 15 mg cohort study: Cmax = 0.39 ng/ml”.

For the compound `CCCC[C@]1(CC)CS(=O)(=O)c2cc(CNC(CC(=O)O)CC(=O)O)c(OC)cc2[C@@H](c2ccccc2)N1` [linerixibat], the “SOAT inhibition (in words)” value on SOAT (inhibitor up to 100 μM) is “failed to significantly inhibit SOAT”. Moreover, the IC50 is 2 to 8 µM and 3.6 µM and 2.2 µM against OATP1B3 [1]; 0.265 µM with OATP1B3 [2] (ref 65 Zamek-Gliszczynski et al. (2021)). In addition, in the data set with OATP1B3 [2], the “Substrate of OATP1B3” value was “is a substrate”.

Consider `CCCCC1(CCCC)CS(=O)(=O)c2ccc(N(C)C)cc2[C@@H](c2ccc(OCc3ccc(C[N+]45CCN(CC4)CC5)cc3)cc2)[C@H]1O` [maralixibat], for which the IC50 at SOAT is 4.5 µM and 5.9 µM; at OATP1B3 [1] it was 5.5 µM and 5.2 µM; with ASBT (ASBT expressed in baby hamster kidney H-14 cell line, ref FDA NDA 214662 Livmarli) it was 0.00028 µM. For the same compound, the “OATP1B3 inhibition (in words)” value in the data set with OATP1B3 [2] (in vitro, ref FDA NDA 214662 Livmarli) was “In vitro, maralixibat did not inhibit the transporters OATP1B1 and OATP1B3”. In addition, the “Cmax, clinical drug concentration” value is 1.62 ng/mL in data set [3] (45 mg cohort study, fasted, ref EMA Livmarli assessment report variation) and 0.57 ng/mL in data set [3] (45 mg cohort study, fed, ref EMA Livmarli assessment report variation).

Regarding `CCCCC1(CCCC)CN(c2ccccc2)c2cc(SC)c(OCC(=O)N[C@@H](C(=O)N[C@@H](CC)C(=O)O)c3ccc(O)cc3)cc2S(=O)(=O)N1` [odevixibat], the IC50 at SOAT is 5.5 µM and 5.6 µM; against OATP1B3 [1] it was 5.1 µM and 4.3 µM; with ASBT (ASBT-expressing HEK293 cells, ref EMA EPAR Risk management plan for odevixibat) it was 0.00013 µM; in the data set on OATP1B3 [2] (in vitro studies, ref FDA NDA 215498 BYLVAY), 0.697 µM. For the same compound, the “OATP1B3 inhibition (in words)” value with OATP1B3 [2] (ref EMA EPAR Product Information Bylvay) was “Odevixibat does not inhibit OATP1B1 and OATP1B3”. Also, the “Cmax, clinical drug concentration” value in data set [3] (120 μg/kg/day cohort study, ref FDA (URL EMA Bylvay product information)) is reported as “Odevixibat clinical drug concentration in the 120 μg/kg/day cohort study: Cmax = 0.62 ng/ml”.
